# Source: US8338334B2, “Synergistic herbicidal composition containing fluroxypyr and quinclorac” (Dow AgroSciences, LLC, priority 2010, dated 2012)
# Where “and” joins values, the source holds several entries; their conditions need not be identical. Identical values can stand only once.
# Legend:
# Experiment in all cases: Postemergence herbicidal activity in the greenhouse, visual weed control
# Format in all cases: in vivo
# Conditions in all cases: 21 DAA
# [1] = test system: Chinese sprangletop (Leptochloa chinensis; LEFCH)
# Experimental: (§1) Seeds of the desired test plant species were planted in 80% mineral soil/20% grit planting mixture, which typically has a pH of 7.2 and an organic matter content of about 2.9 percent, in plastic pots with a surface area of 128 square centimeters (cm^2). The growing medium was steam sterilized. The plants were grown for 7-19 days in a greenhouse with an approximate 14-hour (h) photoperiod which was maintained at about 29° C. during the day and 26° C. during the night. Nutrients and water were added on a regular basis and supplemental lighting was provided with overhead metal halide 1000-Watt lamps as necessary. The plants were treated with postemergence foliar applications when they reached the third to fourth true leaf stage. All treatments were applied using a randomized complete block trial design, with 4 replications per treatment.
# (§2) Treatments consisted of the compounds as listed in Table 1 for each compound applied alone and in combination. Formulated amounts of quinclorac and fluroxypyr-meptyl ester were placed in 60 milliliter (mL) glass vials and dissolved in a volume of 60 mL of a water solution containing Agri-dex crop oil concentrate in a 1% volume per volume (v/v) ratio. Compound requirements are based upon a 12 mL application volume at a rate of 187 liters per hectare (L/ha). Spray solutions of the mixtures were prepared by adding the stock solutions to the appropriate amount of dilution solution to form 12 mL spray solution with active ingredients in single and two way combinations. Formulated compounds were applied to the plant material with an overhead Mandel track sprayer equipped with 8002E nozzles calibrated to deliver 187 L/ha at a spray height of 18 inches (43 centimeters (cm)) above average plant canopy.
# (§3) The treated plants and control plants were placed in a greenhouse as described above and watered by sub-irrigation to prevent wash-off of the test compounds. Treatments were rated at 21 days after application (DAA) as compared to the untreated control plants. Visual weed control was scored on a scale of 0 to 100 percent where 0 corresponds to no injury and 100 corresponds to complete kill.
# (§4) All treatment results, both for the single product and mixtures, are an average of 4 replicates evaluated at 21 days after application, and the tank mix interactions are significant at the […] level.
# (§5) Colby's equation was used to determine the herbicidal effects expected from the mixtures (Colby, S. R. Calculation of the synergistic and antagonistic response of herbicide combinations. Weeds 1967, 15, 20-22.).
# (§6) The following equation was used to calculate the expected activity of mixtures containing two active ingredients, A and B: Expected=A+B−(A×B/100)
# [2] = test system: barnyardgrass (Echinochloa crus-galli; ECHCG)
# Experimental: as §1, §2, §3, §4, §5, §6
# [3] = test system: broadleaf signalgrass (Brachiaria platyphylla; BRAPP)
# Experimental: as §1, §2, §3, §4, §5, §6
# [4] = fluroxypyr-meptyl 100 g ae/ha alone
# [5] = fluroxypyr-meptyl 200 g ae/ha alone
# [6] = fluroxypyr-meptyl 50 g ae/ha alone
SMILES,% Control LEFCH Ob (observed value) ([1]; quinclorac 26 g ai/ha alone),% Control LEFCH Ob (observed value) ([1]; quinclorac 53 g ai/ha alone),% Control LEFCH Ob (observed value) ([1]; quinclorac 110 g ai/ha alone),% Control LEFCH Ob (observed value) ([1]; quinclorac 220 g ai/ha alone),% Control ECHCG Ob (observed value) ([2]; quinclorac 26 g ai/ha alone),% Control ECHCG Ob (observed value) ([2]; quinclorac 53 g ai/ha alone),% Control ECHCG Ob (observed value) ([2]; quinclorac 110 g ai/ha alone),% Control ECHCG Ob (observed value) ([2]; quinclorac 220 g ai/ha alone),% Control BRAPP Ob (observed value) ([3]; quinclorac 26 g ai/ha alone),% Control BRAPP Ob (observed value) ([3]; quinclorac 53 g ai/ha alone),% Control BRAPP Ob (observed value) ([3]; quinclorac 110 g ai/ha alone),% Control BRAPP Ob (observed value) ([3]; quinclorac 220 g ai/ha alone),"% Control LEFCH Ob (observed value) [1, 4]","% Control LEFCH Ob (observed value) [1, 5]","% Control ECHCG Ob (observed value) [2, 6]","% Control ECHCG Ob (observed value) [2, 4]","% Control ECHCG Ob (observed value) [2, 5]","% Control BRAPP Ob (observed value) [3, 6]","% Control BRAPP Ob (observed value) [3, 4]","% Control BRAPP Ob (observed value) [3, 5]"
"O=C(O)c1c(Cl)ccc2cc(Cl)cnc12 [Quinclorac, 3,7-dichloro-8-quinolinecarboxylic acid]",5%,10%,15%,11%,5%,6%,31%,65%,5%,6%,5%,26%,–,–,–,–,–,–,–,–
CCCCCCC(C)OC(=O)COc1nc(F)c(Cl)c(N)c1Cl (centres unmarked) [Fluroxypyr-meptyl],–,–,–,–,–,–,–,–,–,–,–,–,50%,41% and 42%,0%,11%,6%,5%,1%,5%
